Earlier results as cited in patent publication US20220040100A1, “Stable Acyclovir Sodium Parenteral Formulation” (RK Pharma Solutions LLC, priority 2020, published 2022).
Where a name gives a salt, the structure may show the parent alone.

Settings: lyophilized powder reconstituted with Sterile Water for Injection, 50 mg/mL of acyclovir

For `Nc1nc2c(ncn2COCCO)c(=O)[nH]1` [Acyclovir sodium, 2-amino-1,9-dihydro-9-[(2-hydroxyethoxy)methyl]-6H-purin-6-one monosodium salt], the “pH of the reconstituted solution” value is given as “approximately 11”.
